In patent US20240425454A1, “IONIZABLE CATIONIC COMPOUND” (SEQIRUS INC., priority 2021, published 2024):

Assay: TNS fluorescence pKa protocol on saRNA-LNP
Assay type: physicochemical
Settings: saRNA-LNP containing the lipid, in a series of buffers; saRNA-LNP with the lipid; TNS 6 μM, pH 4 to 9.5, 25° C.; read-out: Apparent pKa
Procedure: In a black 96-well plate, solutions of saRNA-LNP (final assay concentration 2 μg/mL total RNA) in a series of buffers ranging from pH 4 to 9.5 were prepared. Buffers between pH 4 to 7.6 were prepared from disodium phosphate and citric acid. Buffers from 7.8 to 9.5 were prepared by titrating tris buffer with 10 N sodium hydroxide. To each well was added 6-(p-Toluidino)-2-naphthalenesulfonic acid sodium salt (TNS) in water to a final assay concentration of 6 μM. The fluorescence was read on a plate reader at 25° C. with an excitation setting of 321 nm and an emission setting of 445 nm. The intensity values were plotted as a function of pH using GraphPad Prism and were fit with a sigmoidal dose response curve. The apparent pKa was determined as the EC50 of this curve where half of the ionizable amines are expected to be protonated (see FIG. 1).

SMILES | pKa
CCCCC(CCCC)OC(=O)CCCCCCCCC(CCCCCCCCC(=O)OC(CCCC)CCCC)OC(=O)CSCCN(CC)CC [SL11] | 5.6
CCCCC(CCCC)OC(=O)CCCCCCCCC(CCCCCCCCC(=O)OC(CCCC)CCCC)OC(=O)COCCN(C)C [SL08] | 7
CCCCC(CCCC)OC(=O)CCCCCCCCC(CCCCCCCCC(=O)OC(CCCC)CCCC)OC(=O)CSC1CCN(C)CC1 [SL07] | 6.1
CCCCC(CCCC)OC(=O)CCCCCCCCC(CCCCCCCCC(=O)OC(CCCC)CCCC)OC(=O)COC1CCN(C)CC1 [SL06] | 7.1
CCCCC(CCCC)OC(=O)CCCCCCCCC(CCCCCCCCC(=O)OC(CCCC)CCCC)OC(=O)COCCCN(C)C [SL09] | 7.1
CCCCC(CCCC)OC(=O)CCCCCCCCC(CCCCCCCCC(=O)OC(CCCC)CCCC)OC(=O)CSCCN(C)C [SL10] | 5.8
CCCCC(CCCC)OC(=O)CCCCCCCCC(CCCCCCCCC(=O)OC(CCCC)CCCC)OC(=O)COC1CCN(CCCO)CC1 [SL12] | 6.9
